From patent US20240140991A1, “ANTIBIOTIC NATURAL PRODUCT ANALOGUES” (THE QUEEN'S UNIVERSITY OF BELFAST, priority 2021, published 2024) come the findings set out here.

In brackets after ≈: the same amount, converted by molar mass. Read-outs that look alike come from different tables or passages of the source. Positions of bridges follow the written chain, without caps; N, C: chain ends. Non-standard residues stand in square brackets, D forms with d. Residues, ends and D or L forms follow the SMILES beside them. ξ: configuration not given here. *: point of attachment. Octanoyl(7-Me) = CC(C)CCCCCC(=O)*; Hexanoyl(4ξ-Me) = CCC(C)CCC(=O)*; dOrn = NCCC[C@@H](N)C(=O)O; Orn = NCCC[C@H](N)C(=O)O; Dap = NC[C@H](N)C(=O)O

In one data set the test system is E. coli EQAS MCR-2. It counts as cell-based, Escherichia coli. The note with it: E. coli EQAS MCR-2 clinical isolate (colistin resistant). The method, then:
(§1) Minimum inhibitory concentration (MIC) was determined by broth microdilution according to CLSI guidelines. Blood agar plates were inoculated with glycerol stocks of Escherichia coli ATCC 25922, E. coli ATCC 25922 MCR-1, E. coli MCR-1 (clinical isolate from Utrecht Medical Center, NL), E. coli EQAS MCR-2 (clinical isolate from Wageningen University and Research, NL), Kiebsielia pneumoniae ATCC 11228, K. pneumoniae ATCC 13883, K. pneumonia 2048 (clinical isolate from Vrije Universiteit Amsterdam Medical Center, NL), K. pneumonia JS-123 (clinical isolate from Utrecht Medical Center, NL), Acinetobacter baumannii ATCC 17961, A. baumannil ATCC 17978, A. baumannii 2018-006 (clinical isolate from Rijksinstituut voor Volksgezondheid en Milieu, NL), A. baumannii MDR (clinical isolate from Vrije Universiteit Amsterdam Medical Center, NL), Pseudomonas aeruginosa ATCC 27853, P. aeruginosa PAO1, P. aeruginosa NRZ-03961 (Reference strain from Das Nationale Referenzzentrum für gramnegative Krankenhauserreger, DE), P. aeruginosa M-120 (clinical isolate from Leiden University Medical Center, NL) and Staphylococcus aureus USA300 (clinical isolate from Texas Children's Hospitalm, USA). E. coli 25922 MCR1 was grown on LB agar supplemented with kanamycin. The inoculated agar plates were then incubated for 16 hours at 37° C. Individually grown colonies were subsequently used to inoculate 3 mL aliquots of TSB that were then incubated at 37° C. with shaking at 220 rpm. In parallel, the compounds to be assessed were serially diluted with Mueller-Hinton broth (MHB) in polypropylene 96-well plates (50 μL in each well). Once the OD600 of the bacterial suspensions reached 0.5, the bacteria were diluted with MHB (final concentration 2×10^5 CFU mL^−1) and added to the microplates containing the test compounds (50 μL to each well, final volume: 100 μL). The well-plates were sealed with an adhesive membrane and after 16 hours of incubation at 37° C. with shaking at 220 rpm the wells were visually inspected for bacterial growth. MIC values were defined as the lowest concentration of the compound that prevented visible growth of bacteria.
(§2) In the table above, “MCR” denotes that one of the MCR family of genes, which confers colistin resistance, is present in the bacterial strain. Thus, E. coli ATCC 25922 MCR-1, E. coli MCR-1 and E. coli EQAS MCR-2 are each colistin resistant. […] Therefore, laterocidamide may overcome some of the challenges faced due to antibiotic resistance.

The subject of a further data set is E. coli MCR-1. It counts as cell-based, Escherichia coli. The note with it: E. coli MCR-1 clinical isolate (colistin resistant). The procedure: as §1, §2
For the next data set, the system named is E. coli ATCC 25922 MCR-1. It counts as cell-based, Escherichia coli. As to conditions: E. coli ATCC 25922 MCR-1 (colistin resistant). The method, then: as §1, §2
A further data set relates to A. baumannii ATCC 17978. It counts as cell-based, Acinetobacter baumannii. The method, then:
as §1

The test system of the next data set is A. baumannii 2018-006. It counts as cell-based, Acinetobacter baumannii. The procedure:
as §1

The subject of another data set is A. baumannii MDR. It counts as cell-based, Acinetobacter baumannii. The note with it: A. baumannii MDR clinical isolate. The method, then: as §1
Another data set relates to P. aeruginosa M-120. It counts as cell-based, Pseudomonas aeruginosa. The procedure: as §1
Another data set relates to P. aeruginosa NRZ-03961. It counts as cell-based, Pseudomonas aeruginosa. The procedure: as §1
In the next data set the test system is P. aeruginosa PAO1. It counts as cell-based, Pseudomonas aeruginosa. The procedure: as §1
Another data set concerns K. pneumoniae ATCC 11228. It counts as cell-based, Klebsiella pneumoniae. The method, then: as §1
Another data set has as its system K. pneumoniae JS-123. It counts as cell-based, Klebsiella pneumoniae. The procedure: as §1
The next data set has as its system K. pneumoniae 2048. It counts as cell-based, Klebsiella pneumoniae. The procedure:
as §1

The next data set concerns K. pneumoniae ATCC 13883. It counts as cell-based, Klebsiella pneumoniae. The procedure: as §1
The subject of data set [1] is Pseudomonas aeruginosa ATCC 27853. It counts as cell-based. The method, boiled down: (§3)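 Broth microdilution in MHB per CLSI; inoculum 2×10^5 CFU mL^−1 from log-phase TSB cultures at OD600 0.5. Plates incubated 16 hours at 37° C with shaking at 220 rpm. MIC is the lowest concentration preventing visible growth.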
Data set [2] relates to Acinetobacter baumannii ATCC 17961. It counts as cell-based. The method, boiled down:
as §3

In data set [3] the test system is Staphylococcus aureus USA300. It counts as cell-based. The essentials: as §3
The test system of data set [4] is Escherichia coli ATCC 25922. It counts as cell-based. The essentials:
as §3

A further data set concerns HepG2 cells. The experiment in a line: Cytotoxicity MTT assay. As to conditions: HepG2, 128 μg/mL, 24 h. The method, then:
In addition to a single vehicle control, compounds (diluted from DMSO stock) were added to each well to obtain in a final 128 μg/mL concentration (max. final DMSO concentration 0.5%) for all compounds except for oritavancin which was administered at 50 μM. Incubation was done for 24 h at 37° C., 7% CO2. After the incubation, MTT was added to each well at a final concentration of 0.40 mg/mL. The plates were then incubated for 2 h at 37° C., 7% CO2. Medium was carefully removed via suction, and purple formazan crystals were resuspended in 100 μL DMSO. Absorbance was read at 570 nm using a Clariostar plate reader. The data was then analysed with GraphPad Prism software. Technical triplicates for each condition were used, along with biological duplicates.

Regarding `CCC(C)CCC(=O)N[C@H](CC(N)=O)C(=O)N[C@H](Cc1ccc(O)cc1)C(=O)N[C@H](Cc1c[nH]c2ccccc12)C(=O)N[C@H](CCCN)C(=O)N[C@@H](CCCN)C(=O)NCC(=O)N[C@H](CCCN)C(=O)N[C@@H](Cc1c[nH]c2ccccc12)C(=O)N[C@H]1COC(=O)[C@H](CO)NC(=O)CNC(=O)[C@H]([C@@H](C)CC)NC1=O` (single isomer, unassigned) [Ser9-Brevicidine], the “Minimum inhibitory concentration (MIC)” value with E. coli EQAS MCR-2 is 4 to 8 µg/mL; with E. coli MCR-1, 2 µg/mL (≈ 1.33 µM); with E. coli ATCC 25922 MCR-1 it was 4 µg/mL (≈ 2.66 µM); in the data set on A. baumannii ATCC 17978 (ATCC 17978), 2 µg/mL (≈ 1.33 µM); in the data set with A. baumannii 2018-006 (2018-006), 2 µg/mL (≈ 1.33 µM); in the data set with A. baumannii MDR, 1 to 2 µg/mL. The “Minimum inhibitory concentration (MIC)” value is 2 µg/mL (≈ 1.33 µM) in the data set on P. aeruginosa M-120 (M-120); 4 µg/mL (≈ 2.66 µM) with P. aeruginosa NRZ-03961 (NRZ-03961); 2 to 4 µg/mL in the data set on P. aeruginosa PAO1 (PAO1); 2 µg/mL (≈ 1.33 µM) in the data set with K. pneumoniae ATCC 11228 (ATCC 11228); 2 µg/mL (≈ 1.33 µM) in the data set with K. pneumoniae JS-123 (JS-123); 4 µg/mL (≈ 2.66 µM) in the data set with K. pneumoniae 2048 (2048). Further, the “Minimum inhibitory concentration (MIC)” value in the data set on K. pneumoniae ATCC 13883 (ATCC 13883) is 2 µg/mL (≈ 1.33 µM); in [1] (ATCC 27853) it was 1 µg/mL (≈ 0.664 µM); in [2] (ATCC 17961) it was 0.5 to 1 µg/mL; in [3] (USA300), over 64 µg/mL; in data set [4] (ATCC 25922), 4 µg/mL (≈ 2.66 µM).
Take `CCC(C)CCC(=O)N[C@H](CO)C(=O)N[C@H](Cc1ccc(O)cc1)C(=O)N[C@H](Cc1c[nH]c2ccccc12)C(=O)N[C@H](CCCN)C(=O)N[C@@H](CCCN)C(=O)NCC(=O)N[C@H](CCCN)C(=O)N[C@@H](Cc1c[nH]c2ccccc12)C(=O)N[C@H]1CNC(=O)CNC(=O)[C@H](CO)NC(=O)CNC(=O)[C@H]([C@@H](C)CC)NC1=O` (some centres unmarked) [Dap9-Relacidamide A] ({Hexanoyl(4ξ-Me)}-[dS][dY][dW][dOrn][Orn]G[dOrn]W[Dap]IGSG; lactam 9-C): the “Minimum inhibitory concentration (MIC)” value with A. baumannii ATCC 17978 (ATCC 17978) is 4 µg/mL (≈ 2.61 µM); in the data set on A. baumannii 2018-006 (2018-006), 2 to 4 µg/mL; with P. aeruginosa M-120 (M-120) it was 1 to 2 µg/mL; with P. aeruginosa NRZ-03961 (NRZ-03961), 2 to 4 µg/mL; in the data set on P. aeruginosa PAO1 (PAO1), 1 to 2 µg/mL; with K. pneumoniae ATCC 11228 (ATCC 11228), 2 µg/mL (≈ 1.3 µM). Further, the “Minimum inhibitory concentration (MIC)” value in the data set on K. pneumoniae JS-123 (JS-123) was 1 µg/mL (≈ 0.652 µM); in the data set with K. pneumoniae 2048 (2048), 2 µg/mL (≈ 1.3 µM); with K. pneumoniae ATCC 13883 (ATCC 13883) it was 2 µg/mL (≈ 1.3 µM); in [1] (ATCC 27853) it was 0.5 to 1 µg/mL; in data set [2] (ATCC 17961) it was 1 to 2 µg/mL; in data set [3] (USA300) it was over 64 µg/mL. In [4] (ATCC 25922), the “Minimum inhibitory concentration (MIC)” value is 2 µg/mL (≈ 1.3 µM).
As to `CC[C@H](C)[C@@H]1NC(=O)[C@@H](NC(=O)[C@H](Cc2c[nH]c3ccccc23)NC(=O)[C@@H](CCCN)NC(=O)CNC(=O)[C@H](CCCN)NC(=O)[C@@H](CCCN)NC(=O)[C@@H](Cc2c[nH]c3ccccc23)NC(=O)[C@@H](Cc2ccc(O)cc2)NC(=O)[C@@H](CO)NC(=O)CCCCCC(C)C)[C@@H](C)OC(=O)CNC(=O)CNC(=O)[C@H](CC(N)=O)NC1=O` [Laterocidine, laterocidine, reference compound] ({Octanoyl(7-Me)}-[dS][dY][dW][dOrn][Orn]G[dOrn]WTINGG; ester 9-C), the “Minimum inhibitory concentration (MIC)” value amounted to 1 µg/mL (≈ 0.623 µM) in the data set with E. coli EQAS MCR-2, 0.5 µg/mL (≈ 0.312 µM) in the data set with E. coli MCR-1, 2 µg/mL (≈ 1.25 µM) in the data set on E. coli ATCC 25922 MCR-1 and 1 µg/mL (≈ 0.623 µM) with A. baumannii MDR. For the same molecule, the “cytotoxicity / cell viability” value in the data set with HepG2 cells is “completely non-toxic”.
Take `CC[C@@H](C)[C@H]1NC(=O)[C@H](NC(=O)[C@@H](Cc2c[nH]c3ccccc23)NC(=O)[C@H](CCCN)NC(=O)CNC(=O)[C@@H](CCCN)NC(=O)[C@H](CCCN)NC(=O)[C@H](Cc2c[nH]c3ccccc23)NC(=O)[C@H](Cc2ccc(O)cc2)NC(=O)[C@H](CO)NC(=O)CCCCCC(C)C)[C@H](C)OC(=O)CNC(=O)CNC(=O)[C@@H](CC(N)=O)NC1=O` [ent- Laterocidine] ({Octanoyl(7-Me)}-SYW[Orn][dOrn]G[Orn][dW][dT][dI][dN]GG; ester 9-C): the “Minimum inhibitory concentration (MIC)” value fell in the range of 8 to 16 µg/mL with E. coli EQAS MCR-2, 8 to 16 µg/mL in the data set with E. coli MCR-1, 8 to 16 µg/mL in the data set with E. coli ATCC 25922 MCR-1 and 4 to 8 µg/mL in the data set on A. baumannii MDR.
With colistin [reference compound], the “Minimum inhibitory concentration (MIC)” value in the data set on E. coli EQAS MCR-2 is 2 to 4 µg/mL; with E. coli MCR-1, 2 to 4 µg/mL; in the data set on E. coli ATCC 25922 MCR-1, 2 to 4 µg/mL; with A. baumannii ATCC 17978 (A. baumannii ATCC 17978), at most 0.5 µg/mL; with A. baumannii 2018-006 (A. baumannii 2018-006 clinical isolate) it was at most 0.5 µg/mL; in the data set with A. baumannii MDR, at most 0.5 µg/mL. For the same molecule, the “Minimum inhibitory concentration (MIC)” value with P. aeruginosa M-120 (P. aeruginosa M-120 clinical isolate) is 1 µg/mL; with P. aeruginosa NRZ-03961 (P. aeruginosa NRZ-03961), under 0.5 µg/mL; with P. aeruginosa PAO1 (P. aeruginosa PAO1), at most 0.5 µg/mL; in the data set with K. pneumoniae ATCC 11228 (K. pneumoniae ATCC 11228), at most 0.5 µg/mL; in the data set on K. pneumoniae JS-123 (K. pneumoniae JS-123 clinical isolate) it was at most 0.5 µg/mL; in the data set on K. pneumoniae 2048 (K. pneumoniae 2048 clinical isolate) it was 2 µg/mL. Also, the “Minimum inhibitory concentration (MIC)” value is 1 µg/mL with K. pneumoniae ATCC 13883 (K. pneumoniae ATCC 13883); 1 µg/mL in [1] (P. aeruginosa ATCC 27853); at most 0.5 µg/mL in [2] (A. baumannii ATCC 17961); over 64 µg/mL in data set [3] (S. aureus USA300 (Gram-positive)); 0.25 to 0.5 µg/mL in data set [4] (E. coli ATCC 25922).
